Converted amounts (≈) assume the structure as drawn. “And” between values parts separate entries of the source, which are not always exact repeats. Equal values may be shown once. Read-outs that look alike come from different tables or passages of the source.
Assays:
stains, molds, and fungi [1] = experiment: Wood preserving efficacy on freshly cut green chestnut oak (dip treatment); design: scale not given here
stains, molds, and fungi [2] = experiment: Wood preserving efficacy on freshly cut white birch wood (dip treatment, sealed bag); design: key: 4 - Clean with no visible stain or mold; 3 - Trace amount of white/black fungal growth; 2 - Black and/or white fungal growth visible on all faces and ends; 1 - Heavy fungal growth
Experimental: The wood preserving efficacy of each aqueous test solution in Table 1 below was tested on freshly cut white birch wood as follows. All percentages in Table 1 are by weight. A branch of white birch tree measuring about 3 inches in diameter was cut into pieces about 6 inch in length. Each piece was then split into 4 sections. Each section was dipped into the test solution for about 1 minute and blotted with a paper towel to remove excess liquid. The sections were sealed in a clear plastic bag and stored at ambient conditions. The sections were observed after 1, 3, 7, and 12 weeks for the growth of stains, molds, and fungi. The aqueous test solutions were prepared by mixing the active ingredient with water.

[3] = system: Chaetomium globsum (C. globsum), a soft rot fungus; experiment: Agar plate method, fungus growth inhibition; type: cell-based
Experimental: (§1) The efficacy of aqueous solutions of amine oxides and didecyldimethyl ammonium chloride to inhibit fungus growth was evaluated by the agar plate method known in the art. […] The fungi tested were Trametes versicolor (T. versicolor), a white rot fungus; Gloeophyllum trabeum (G. trabeum), a brown rot fungus which is tolerant of arsenic and phenolic type wood preservatives; Poria placenta (P. placenta), a brown rot fungus which is tolerant to copper in wood preservatives; Lentinus lepideus (L. lepideus), a brown rot fungus which is tolerant to creosote; Coniophora puteana (C. puteana), a brown rot fungus; and Chaetomium globsum (C. globsum), a soft rot fungus.

[4] = system: Gloeophyllum trabeum (G. trabeum), a brown rot fungus; experiment: Agar plate method, fungus growth inhibition; type: cell-based
Experimental: as §1

[5] = system: Poria placenta (P. placenta), a brown rot fungus; experiment: Agar plate method, fungus growth inhibition; type: cell-based
Experimental: as §1

[6] = system: Trametes versicolor (T. versicolor), a white rot fungus; experiment: Agar plate method, fungus growth inhibition; type: cell-based; settings: 50% retardation of growth
Experimental: as §1

[7] = system: C. globosum (soft rot decay fungi); experiment: Agar dilution plate method, wood rot fungi; type: cell-based; settings: for MIC: Chaetomium globosum, read-out: MIC (ppm of amine oxides)
Experimental: (§2) The efficacy of the aqueous amine oxide solutions in Table 14 at various concentrations against the wood rot fungi T. versicolor (white rot fungi), G. trabeum (brown rot fungi), P. placenta (brown rot fungi), and C. globosum (soft rot decay fungi) were determined using the agar dilution plate method well known in the art. […] The percent retardation of the fungi was determined by the percentage change in the diameter of the fungi on the agar plate (i.e. Percent Retardation=((Diameter of Control)−(Diameter of Treated Fungi))/(Diameter of Control)*100%).

[8] = system: G. trabeum (brown rot fungi); experiment: Agar dilution plate method, wood rot fungi; type: cell-based; settings: for MIC: Gloeophyllum trabeum, read-out: MIC (ppm of amine oxides)
Experimental: as §2

[9] = system: P. placenta (brown rot fungi); experiment: Agar dilution plate method, wood rot fungi; type: cell-based; settings: for MIC: read-out: MIC (ppm of amine oxides)
Experimental: as §2

[10] = system: T. versicolor (white rot fungi); experiment: Agar dilution plate method, wood rot fungi; type: cell-based; settings: for MIC: Trametes versicolor, read-out: MIC (ppm of amine oxides)
Experimental: as §2

stains, molds, and fungi [11] = experiment: Wood preserving efficacy on freshly cut tulip wood (dip treatment); further: key: 4 - Clean with no visible stain or mold; 3 - Trace amount of white/black fungal growth; 2 - Black and/or white fungal growth visible on all faces and ends; 1 - Heavy fungal growth
Experimental: The wood preserving efficacy of each aqueous test solution in Table 17 below was tested on freshly cut tulip wood (also known as Tulip-Popular, Yellow Popular, and Liriodendron tulipfera L.) as follows. All percentages in Table 17 are by weight. Pieces of tulip wood cut from a 4″ debarked branch were cut into pieces. Each piece was then split into 4 sections. Each section was dipped into the test solution for about 1 minute and blotted with a paper towel to remove excess liquid. The sections were sealed in a clear plastic bag and stored at ambient conditions. The sections were observed after 1, 3, 7, and 11 weeks for the growth of stains, molds, and fungi. The aqueous test solutions were prepared by mixing the active ingredient with water.

stains, molds, and fungi [12] = experiment: Wood preserving efficacy on freshly cut beech wood (dip treatment); settings: beech wood pieces (Example 15); further: key: 4 - Clean with no visible stain or mold; 3 - Trace amount of white/black fungal growth; 2 - Black and/or white fungal growth visible on all faces and ends; 1 - Heavy fungal growth
Experimental: The wood preserving efficacy of each aqueous test solution in Table 18 below was tested on freshly cut beech wood (Fagus grandifolia Ehrh.) as follows. All percentages in Table 18 are by weight. A 1″ branch of a beech tree was split into two pieces. The bark was left on the pieces. Each piece was dipped into the test solution for about 1 minute and blotted with a paper towel to remove excess liquid. […] The aqueous test solutions were prepared by mixing the active ingredient with water.

[13] = C. globosum, 100% growth retardation, Table 14
[14] = G. trabeum, 100% growth retardation, Table 14
[15] = P. placenta, 100% growth retardation, Table 14
[16] = T. versicolor, 100% growth retardation, Table 14
[17] = 3 weeks, listed as 0.5% Dodecyl DMAO
[18] = 3 weeks, listed as 1.0% Dodecyl DMAO
[19] = 7 weeks, listed as 0.5% Dodecyl DMAO
[20] = 7 weeks, listed as 1.0% Dodecyl DMAO
[21] = 11 weeks, listed as 0.5% Dodecyl DMAO
[22] = 11 weeks, listed as 1.0% Dodecyl DMAO

Which “Rating of treated green chestnut oak sections vs. Time” value (stains, molds, and fungi [1]; 2 weeks) does the source give for `CC(O)(P(=O)(O)O)P(=O)(O)O` [1-Hydroxyethylidene-1,1-diphosphonic acid] here?
Its value is 2.

And the “Rating of treated green chestnut oak sections vs. Time” value (stains, molds, and fungi [1]; 4 weeks)?
The value was 2.

And the “Rating of treated green chestnut oak sections vs. Time” value (stains, molds, and fungi [1]; 5 weeks)?
The value was 1.

What about the “Rating of treated green chestnut oak sections vs. Time” value (stains, molds, and fungi [1]; 9 weeks) of the same compound?
The value was 1.

`CCCCCCCCCC[N+](C)(C)[O-]` [Decyldimethylamine oxide] was tested. Which “Rating of treated white birch sections vs. Time” value (stains, molds, and fungi [2]; 1 week) did it give?
The value was 3.

And the “Rating of treated white birch sections vs. Time” value (stains, molds, and fungi [2]; 3 weeks)?
Its value is 2.

What about the “Rating of treated white birch sections vs. Time” value (stains, molds, and fungi [2]; 7 weeks) of the same compound?
Its value is 2.

And the “Rating of treated white birch sections vs. Time” value (stains, molds, and fungi [2]; 12 weeks)?
Its value is 2.

And the IC50 [3]?
The IC50 was 50-100 ppm.

What about the IC50 [4] of the same compound?
The IC50 was 20-40 ppm.

What about the IC50 [5] of the same compound?
The IC50 was 15-25 ppm.

And the IC50 [6]?
The IC50 was 300-500 ppm.

And the MIC [7, 13]?
Its MIC is over 1000 µg/mL.

What about the MIC [8, 14] of the same compound?
Its MIC is 250 µg/mL (≈ 1.24 mM).

And the MIC [9, 15]?
Its MIC is 500 µg/mL (≈ 2.48 mM).

What about the MIC [10, 16] of the same compound?
Its MIC is 750 µg/mL (≈ 3.72 mM).

With `CCCCCCCCCCCC[N+](C)(C)[O-]` [Dodecyl dimethylamine oxide, dodecyl dimethylamine oxide] as the compound, how does the “Rating of treated green chestnut oak sections vs. Time” value (stains, molds, and fungi [1]; 2 weeks) read?
The value was 3.

And the “Rating of treated green chestnut oak sections vs. Time” value (stains, molds, and fungi [1]; 4 weeks)?
The value was 2.

And the “Rating of treated green chestnut oak sections vs. Time” value (stains, molds, and fungi [1]; 5 weeks)?
The value was 2.

What about the “Rating of treated green chestnut oak sections vs. Time” value (stains, molds, and fungi [1]; 9 weeks) of the same compound?
The value was 1.

And the MIC [7]?
The MIC was over 1000 µg/mL.

And the MIC [8]?
Its MIC is 250 µg/mL (≈ 1.09 mM).

What about the MIC [9] of the same compound?
The MIC was 250 µg/mL (≈ 1.09 mM).

What about the MIC [10] of the same compound?
Its MIC is 250 µg/mL (≈ 1.09 mM).

What about the “Rating of treated tulip sections vs. Time” value (stains, molds, and fungi [11]; 1 week) of the same compound?
The value was 4.

And the “Rating of treated tulip sections vs. Time” value (stains, molds, and fungi [11]; [17])?
The value was 3.

And the “Rating of treated tulip sections vs. Time” value (stains, molds, and fungi [11]; [18])?
The value was 4.

What about the “Rating of treated tulip sections vs. Time” value (stains, molds, and fungi [11]; [19]) of the same compound?
The value was 2.

And the “Rating of treated tulip sections vs. Time” value (stains, molds, and fungi [11]; [20])?
Its value is 4 and 3.

What about the “Rating of treated tulip sections vs. Time” value (stains, molds, and fungi [11]; [21]) of the same compound?
Its value is 1.

What about the “Rating of treated tulip sections vs. Time” value (stains, molds, and fungi [11]; [22]) of the same compound?
The value was 4.

And the “Rating of treated tulip sections vs. Time” value (stains, molds, and fungi [12]; 1 week, listed as 0.5% Dodecyl DMAO)?
The value was 4.

And the “Rating of treated tulip sections vs. Time” value (stains, molds, and fungi [12]; 1 week, listed as 1.0% Dodecyl DMAO)?
The value was 4 and 3.5.

And the “Rating of treated tulip sections vs. Time” value (stains, molds, and fungi [12]; [17])?
Its value is 4.

And the “Rating of treated tulip sections vs. Time” value (stains, molds, and fungi [12]; [18])?
Its value is 2 and 3.

What about the “Rating of treated tulip sections vs. Time” value (stains, molds, and fungi [12]; [19]) of the same compound?
Its value is 2.5.

And the “Rating of treated tulip sections vs. Time” value (stains, molds, and fungi [12]; [20])?
The value was 2.

And the “Rating of treated tulip sections vs. Time” value (stains, molds, and fungi [12]; [21])?
Its value is 2.5.

What about the “Rating of treated tulip sections vs. Time” value (stains, molds, and fungi [12]; [22]) of the same compound?
Its value is 2 and 1.

Which “MIC (ppm of amine oxides)” value [7, 13] does the source give for `CCCCCCCCCCCC[N+](C)([O-])Cc1ccccc1` (centres unmarked) [Dodecyl-BMAO] here?
Its value is over 1000 ppm.

And the “MIC (ppm of amine oxides)” value [8, 14]?
Its value is 1000 ppm.

And the “MIC (ppm of amine oxides)” value [9, 15]?
Its value is over 1000 ppm.

And the “MIC (ppm of amine oxides)” value [10, 16]?
The value was over 1000 ppm.

What does the source list for `CCCCCCCCCCCC[N+]1([O-])CCOCC1` [Lauryl morpholine N-oxide, lauryl morpholine N-oxide]?
MIC (ppm of amine oxides) [7, 13]: >1000 ppm; MIC (ppm of amine oxides) [8, 14]: 1000 ppm; MIC (ppm of amine oxides) [9, 15]: 500 ppm; MIC (ppm of amine oxides) [10, 16]: 750 ppm

How did the IC50 [3] turn out when `CCCCCCCCCCCCCCCCCC[N+](C)(C)[O-]` [Octadecyl dimethylamine oxide] was run?
The IC50 was 600 ppm.

What about the IC50 [4] of the same compound?
Its IC50 is 250 ppm.

And the IC50 [5]?
Its IC50 is 20-50 ppm.

And the IC50 [6]?
The IC50 was 800 ppm.

And the MIC [7, 13]?
Its MIC is over 1000 µg/mL.

What about the MIC [8, 14] of the same compound?
The MIC was over 1000 µg/mL.

What about the MIC [9, 15] of the same compound?
The MIC was over 1000 µg/mL.

And the MIC [10, 16]?
The MIC was over 1000 µg/mL.

For `CCCCCCCC[N+](C)(C)[O-]` [Octyldimethylamine oxide], which IC50 [3] is on record?
The IC50 was 400 ppm.

What about the IC50 [4] of the same compound?
The IC50 was 250-400 ppm.

What about the IC50 [5] of the same compound?
Its IC50 is 300 ppm.

And the IC50 [6]?
The IC50 was 800 ppm.

And the MIC [7, 13]?
Its MIC is over 1000 µg/mL.

What about the MIC [8, 14] of the same compound?
The MIC was 1000 µg/mL (≈ 5.77 mM).

What about the MIC [9, 15] of the same compound?
Its MIC is 1000 µg/mL (≈ 5.77 mM).

And the MIC [10, 16]?
The MIC was 750 µg/mL (≈ 4.33 mM).

Which “Rating of treated white birch sections vs. Time” value (stains, molds, and fungi [2]; 1 week) does the source give for `CCCCCCCCCCCCCC[N+](C)(C)[O-]` [Tetradecyl dimethylamine oxide] here?
Its value is 4.

What about the “Rating of treated white birch sections vs. Time” value (stains, molds, and fungi [2]; 3 weeks) of the same compound?
The value was 3.

What about the “Rating of treated white birch sections vs. Time” value (stains, molds, and fungi [2]; 7 weeks) of the same compound?
The value was 2.

What about the “Rating of treated white birch sections vs. Time” value (stains, molds, and fungi [2]; 12 weeks) of the same compound?
Its value is 2.

What about the IC50 [3] of the same compound?
The IC50 was 80-100 ppm.

What about the IC50 [4] of the same compound?
The IC50 was 15-25 ppm.

What about the IC50 [5] of the same compound?
The IC50 was 2-5 ppm.

What about the IC50 [6] of the same compound?
The IC50 was 70 ppm.

What about the MIC [7, 13] of the same compound?
Its MIC is over 1000 µg/mL.

What about the MIC [8, 14] of the same compound?
The MIC was over 1000 µg/mL.

What about the MIC [9, 15] of the same compound?
Its MIC is over 1000 µg/mL.

What about the MIC [10, 16] of the same compound?
The MIC was over 1000 µg/mL.

Coco-di(hydroxyethyl)amine oxide was tested. Which “MIC (ppm of amine oxides)” value [7, 13] did it give?
The value was over 1000 ppm.

What about the “MIC (ppm of amine oxides)” value [8, 14] of the same compound?
The value was 500 ppm.

And the “MIC (ppm of amine oxides)” value [9, 15]?
Its value is 500 ppm.

And the “MIC (ppm of amine oxides)” value [10, 16]?
The value was 500 ppm.

Which “MIC (ppm of amine oxides)” value [7, 13] does the source give for Tallow di(hydroxyethyl)amine oxide here?
Its value is over 1000 ppm.

What about the “MIC (ppm of amine oxides)” value [8, 14] of the same compound?
The value was over 1000 ppm.

What about the “MIC (ppm of amine oxides)” value [9, 15] of the same compound?
Its value is over 1000 ppm.

What about the “MIC (ppm of amine oxides)” value [10, 16] of the same compound?
The value was over 1000 ppm.
